Measurements published in patent US12138272B2, “Methods and compositions for treating amyotrophic lateral sclerosis” (Amylyx Pharmaceuticals, Inc., priority 2022, dated 2024).
Converted amounts (≈) assume the structure as drawn. “Also recorded” adds a separate entry of the source. Marks after values point to notes of the source that are not given here.

Experiments:
Caco-2 cells = assay: Recovery of test article in the Caco-2 efflux assay; format: in vitro ADME; conditions: 1 and 10 μM, in the presence of cells
Procedure: Non-specific binding of phenylacetic acid to the transwell assay plate in the absence of cells was not conducted. However, the recovery of the test article (1 and 10 μM) was determined in the Caco-2 efflux assay, in the presence of cells, and was acceptable.

BSEP [1] = biological target: T1, BSEP (Homo sapiens, UniProt O95342); assay: in vitro
T1 sequence (O95342 whole entry): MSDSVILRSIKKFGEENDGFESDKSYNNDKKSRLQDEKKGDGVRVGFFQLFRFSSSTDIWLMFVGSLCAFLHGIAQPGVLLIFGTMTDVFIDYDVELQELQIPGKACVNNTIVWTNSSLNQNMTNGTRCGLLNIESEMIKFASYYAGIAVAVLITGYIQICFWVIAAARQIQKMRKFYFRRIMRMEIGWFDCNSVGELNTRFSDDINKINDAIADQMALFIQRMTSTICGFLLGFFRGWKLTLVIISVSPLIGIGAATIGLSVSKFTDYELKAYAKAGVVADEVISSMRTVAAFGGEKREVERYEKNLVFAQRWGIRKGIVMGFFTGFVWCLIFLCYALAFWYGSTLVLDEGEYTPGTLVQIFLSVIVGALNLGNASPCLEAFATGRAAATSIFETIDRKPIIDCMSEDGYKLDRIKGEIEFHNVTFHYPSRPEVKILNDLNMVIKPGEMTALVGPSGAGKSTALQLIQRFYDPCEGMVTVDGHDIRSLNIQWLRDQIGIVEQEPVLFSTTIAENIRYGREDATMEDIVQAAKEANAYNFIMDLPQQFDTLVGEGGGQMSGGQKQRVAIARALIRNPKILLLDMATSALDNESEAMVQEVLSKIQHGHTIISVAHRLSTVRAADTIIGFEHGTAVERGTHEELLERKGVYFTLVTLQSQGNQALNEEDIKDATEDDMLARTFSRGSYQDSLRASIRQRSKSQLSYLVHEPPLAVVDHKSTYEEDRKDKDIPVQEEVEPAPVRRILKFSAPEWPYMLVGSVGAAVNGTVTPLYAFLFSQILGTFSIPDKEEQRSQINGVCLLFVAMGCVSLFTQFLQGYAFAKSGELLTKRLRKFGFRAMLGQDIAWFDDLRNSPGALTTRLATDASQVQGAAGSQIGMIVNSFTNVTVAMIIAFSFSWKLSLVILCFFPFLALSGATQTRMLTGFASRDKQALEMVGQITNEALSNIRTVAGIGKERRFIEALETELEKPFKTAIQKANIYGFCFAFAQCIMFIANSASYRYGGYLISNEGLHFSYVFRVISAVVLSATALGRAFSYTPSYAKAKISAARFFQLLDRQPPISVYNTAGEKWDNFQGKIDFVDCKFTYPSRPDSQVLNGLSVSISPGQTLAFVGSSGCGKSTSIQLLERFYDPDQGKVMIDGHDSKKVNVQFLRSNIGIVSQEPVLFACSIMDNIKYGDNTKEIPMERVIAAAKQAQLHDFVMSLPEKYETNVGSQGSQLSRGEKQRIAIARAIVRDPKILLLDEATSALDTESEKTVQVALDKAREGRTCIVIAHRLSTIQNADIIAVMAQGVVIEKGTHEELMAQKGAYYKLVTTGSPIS

[2] = Solubility in stock solvent and assay buffers
BSEP [3] = biological target: T1, BSEP; assay: Inhibition of 3H-taurocholic acid uptake by BSEP membrane vesicles (inhibitor assessment); conditions: for inhibitor of BSEP (conclusion in words): criterion >25% concentration-dependent inhibition of probe substrate uptake; for ATP-Dependent Uptake Activity of 3H-taurocholic acid / Signal-to-Noise Ratio / Uptake Activity of 3H-taurocholic acid, Mg-AMP / Uptake Activity of 3H-taurocholic acid, Mg-ATP: 3H-taurocholic acid 1 μM
BSEP [4] = biological target: T1, BSEP; assay: ATP-dependent uptake of test article by BSEP-transfected Sf9 membrane vesicles (substrate assessment); conditions: for substrate of BSEP (conclusion in words): criteria ≥2-fold ATP-dependent uptake and >50% inhibition by selective inhibitor
[5] = test article 1 μM + cyclosporine 20 μM
[6] = test article 10 μM + cyclosporine 20 μM

## O=C(O)Cc1ccccc1 [Phenylacetic acid]
Caco-2 cells
  recovery of the test article in the Caco-2 efflux assay: acceptable
BSEP [1]
  activity at 30 min, 750 μM: 99.6%
  activity at 30 min, 7500 μM: 0%
  potency estimated from few doses at 30 min: < 7.5 mM
[2]; aqueous buffer, kinetic from dmso stock
  solubility: 7.5 mM (≈ 1.02 mg/mL)
[2]; methanol, organic solvent or mixture
  solubility: 1500 mM (≈ 204 mg/mL)
BSEP [3]
  inhibitor of BSEP (conclusion in words): strongly inhibited; also recorded: identified as an inhibitor of BSEP; also recorded: inhibited BSEP
BSEP [3]; listed as phenylacetic acid
  inhibitor of BSEP (conclusion in words): inhibit BSEP
BSEP [3]; inhibitor 750 μM
  ATP-Dependent Uptake Activity of 3H-taurocholic acid: 4.68 pmol/minute/mg protein
  Signal-to-Noise Ratio: 17.2
  Uptake Activity of 3H-taurocholic acid, Mg-AMP: 0.288 pmol/minute/mg protein
  Uptake Activity of 3H-taurocholic acid, Mg-ATP: 4.96 pmol/minute/mg protein
BSEP [3]; inhibitor 7500 μM
  ATP-Dependent Uptake Activity of 3H-taurocholic acid: −0.136 pmol/minute/mg protein
  Signal-to-Noise Ratio: 0.731
  Uptake Activity of 3H-taurocholic acid, Mg-AMP: 0.506 pmol/minute/mg protein
  Uptake Activity of 3H-taurocholic acid, Mg-ATP: 0.370 pmol/minute/mg protein
BSEP [4]; test article 1 μM
  ATP-Dependent Uptake Activity of test article: 24.2 pmol/minute/mg protein
  Signal-to-Noise Ratio: 9.95
  Uptake Activity of test article, Mg-AMP: 2.71^b pmol/minute/mg protein
  Uptake Activity of test article, Mg-ATP: 26.9 pmol/minute/mg protein
BSEP [4]; [5]
  ATP-Dependent Uptake Activity of test article: 18.3 pmol/minute/mg protein
  Signal-to-Noise Ratio: 3.41
  Uptake Activity of test article, Mg-AMP: 7.60^c pmol/minute/mg protein
  Uptake Activity of test article, Mg-ATP: 25.9 pmol/minute/mg protein
BSEP [4]; test article 10 μM
  ATP-Dependent Uptake Activity of test article: 814 pmol/minute/mg protein
  Signal-to-Noise Ratio: 12.6
  Uptake Activity of test article, Mg-AMP: 70.3 pmol/minute/mg protein
  Uptake Activity of test article, Mg-ATP: 884 pmol/minute/mg protein
BSEP [4]; [6]
  ATP-Dependent Uptake Activity of test article: 772 pmol/minute/mg protein
  Signal-to-Noise Ratio: 10.1
  Uptake Activity of test article, Mg-AMP: 84.7 pmol/minute/mg protein
  Uptake Activity of test article, Mg-ATP: 857 pmol/minute/mg protein
BSEP [4]; test article 1 and 10 μM
  ATP-dependent BSEP uptake activity relative to AMP uptake: > 2 fold
  substrate of BSEP (conclusion in words): not identified as a substrate
BSEP [4]; test article 1 and 10 μM, listed as phenylacetic acid
  substrate of BSEP (conclusion in words): not a substrate; also recorded: unlikely that phenylacetic acid is a substrate
BSEP [4]; test article 1 and 10 μM, cyclosporine A 20 μM
  inhibition of test article uptake by cyclosporine A: not inhibited by cyclosporine A
